The values that follow come from patent US20250296959A1, “B7-H3 TARGETING PEPTIDES AND CONSTRUCTS THEREOF” (Mariana Oncology Inc., priority 2024, published 2025).

Data set [1] has as its target T1, 2Ig B7-H3 (Homo sapiens, UniProt Q5ZPR3).
T1 sequence (Q5ZPR3 29-316 isoform Q5ZPR3-2 limits assumed): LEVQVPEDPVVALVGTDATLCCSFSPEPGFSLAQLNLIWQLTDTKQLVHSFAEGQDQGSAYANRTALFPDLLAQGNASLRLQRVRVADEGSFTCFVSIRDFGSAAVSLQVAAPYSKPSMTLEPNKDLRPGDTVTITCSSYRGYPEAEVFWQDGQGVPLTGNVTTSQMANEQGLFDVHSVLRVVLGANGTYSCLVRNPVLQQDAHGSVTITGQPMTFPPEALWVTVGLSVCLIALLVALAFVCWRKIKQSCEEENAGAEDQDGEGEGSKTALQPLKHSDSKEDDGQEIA
Description: SPR binding affinity to 2Ig B7-H3. (In general: In SPR one partner is held on a chip, and binding of the other changes the refractive index at the surface.)

Data set [2] concerns Calu-6 cell line. Description: Cell associated (bound) fraction of [177Lu]Lu-labeled peptide in Calu-6 cells. The class given is cell-based, Human. Particulars: 1 hour, 37° C. Summed up:
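Detached B7-H3-expressing human lung cancer cells at 5 million/mL were exposed for 1 hour at 37 °C to 0.8 μCi of the 177Lu-labelled peptide, which was formulated in 1% PBSA after labelling at 80 °C, pH ~5. Supernatant and two cold washes counted as unbound, and resuspended cells gamma-counted as the cell-associated fraction.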

In data set [3] the test system is Calu-6 cell line. The data set can be described thus: Net internalization of [177Lu]Lu-labeled peptide in Calu-6 cells. The class given is cell-based, Human. The settings on record: 1 hour, 37° C., glycine pH 2.5 acid wash. Summed up:
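Calu-6 cells, human non-engineered lung cancer expressing B7-H3, resuspended in 1% PBSA at 5 million cells/mL and incubated with the 177Lu-labeled conjugate (labeled at 80 °C, pH ~5, RP-HPLC checked). Gamma counting of the bound fraction, then of the pellet after two glycine pH 2.5 acid strips and NaOH lysis, gives internalized activity.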

For data set [4], the target named is T2, human 4lg B7-H3 (Homo sapiens, UniProt Q5ZPR3).
T2 sequence (Q5ZPR3 29-534): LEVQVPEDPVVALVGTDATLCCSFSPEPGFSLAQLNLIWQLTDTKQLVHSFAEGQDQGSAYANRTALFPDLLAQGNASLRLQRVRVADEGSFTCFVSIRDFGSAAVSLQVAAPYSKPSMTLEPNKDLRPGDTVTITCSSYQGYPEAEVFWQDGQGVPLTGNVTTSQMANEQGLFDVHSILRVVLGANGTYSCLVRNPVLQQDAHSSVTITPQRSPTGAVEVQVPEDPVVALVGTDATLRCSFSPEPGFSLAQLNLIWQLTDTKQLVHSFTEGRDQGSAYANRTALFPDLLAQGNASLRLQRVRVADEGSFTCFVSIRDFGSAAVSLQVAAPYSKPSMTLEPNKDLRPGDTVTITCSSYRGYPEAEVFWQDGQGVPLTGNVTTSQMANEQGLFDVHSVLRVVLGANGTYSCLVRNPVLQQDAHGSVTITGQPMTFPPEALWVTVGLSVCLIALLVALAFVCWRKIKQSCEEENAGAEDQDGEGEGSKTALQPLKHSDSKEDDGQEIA
Description: Affinity determination by surface plasmon resonance (SPR) to 4Ig B7-H3.

Data set [5] concerns Calu-6 tumors. Description: Ex vivo biodistribution of radiolabeled peptides in nude mice bearing Calu-6 tumors. Particulars: [177Lu]Lu labeling, 24 h post-injection.
Description: Mice were euthanized at pre-determined time points and selected tissues were resected and collected into pre-weighed tubes. The tubes were then reweighed post resection, the difference giving the weight of each tissue. Radioactivity in each tissue was measured using a gamma counter. Counts were decay corrected to the time of injection and percentage of injected activity per gram (% IA/g) was calculated for each tissue based on the injected activity into each individual mouse. Injected activity was converted to counts based on the sensitivity of the gamma counter. The counts in tissue were then converted to the percentage of injected activity and this was divided by the mass of tissue to give % IA/g.
The target in data set [6] is T3, Biotinylated human 4Ig B7-H3 (human, UniProt Q5ZPR3 29-461, limits assumed, biotinylated (site not stated)).
T3 construct: Protein captured on the SA chip for SPR; also called 4lg-B7-H3; B7-H3 isoform 4Ig
T3 sequence: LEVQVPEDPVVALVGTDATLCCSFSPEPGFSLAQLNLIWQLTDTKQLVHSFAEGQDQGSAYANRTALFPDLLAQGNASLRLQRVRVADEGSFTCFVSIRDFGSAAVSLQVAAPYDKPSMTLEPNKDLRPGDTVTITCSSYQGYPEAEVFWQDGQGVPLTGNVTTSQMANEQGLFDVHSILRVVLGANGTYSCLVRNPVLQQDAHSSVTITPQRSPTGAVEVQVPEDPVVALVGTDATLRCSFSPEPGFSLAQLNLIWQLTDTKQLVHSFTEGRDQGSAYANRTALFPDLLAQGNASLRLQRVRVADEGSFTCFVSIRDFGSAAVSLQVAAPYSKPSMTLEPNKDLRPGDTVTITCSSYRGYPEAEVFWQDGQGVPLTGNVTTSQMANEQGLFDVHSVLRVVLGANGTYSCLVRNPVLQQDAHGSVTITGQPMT
Description: SPR 37C; C = 10<KD<=100 nM.

Setting [7] is: 37° C., read-out: 2Ig B7-H3_KD (nM) at 37° C.
Setting [8] is: SPR KD—37° C., 4Ig B7-H3, 37° C. flow cell temperature.

Where two headings read alike, the source gives them in different places. Starred links: 1 amine or outer side, 2 acyl side, 3 side chain; linkers in the order of their positions; H or OH if unused. Positions of bridges follow the written chain, without caps; N, C: chain ends. Non-standard residues stand in square brackets, D forms with d. Residues, ends and D or L forms follow the SMILES beside them. Groups on a side chain read outwards from the residue. Primed or numbered codes have the meaning given here. *: point of attachment. Ala(1-CH2CO2H-4-piperidyl) = N[C@@H](CC1CCN(CC(=O)O)CC1)C(=O)O; Ala(piperidin-4-yl) = O=C([C@H](CC1CCN([*:3])CC1)N[*:1])[*:2]; DOTA = O=C(O)CN1CCN(CC(=O)O)CCN(CC(=O)*)CCN(CC(=O)O)CC1; Trp(5-F) = N[C@@H](Cc1c[nH]c2ccc(F)cc12)C(=O)O; X1 = C[C@@H](c1ccccc1)[C@H](N[*:1])C(=O)[*:2]; Val(3-OH) = CC(C)(O)[C@H](N)C(=O)O; PEG4 = NCCOCCOCCOCCOCCC(=O)O; Tle = CC(C)(C)[C@H](N)C(=O)O; hLeu = CC(C)CC[C@H](N)C(=O)O; Nle = CCCC[C@H](N)C(=O)O; PEG8′ = not defined here

In data set [1], `CC(=O)N[C@@H](CCC(C)C)C(=O)N[C@@H](Cc1ccc(O)cc1)C(=O)N[C@H]1CSSC[C@@H](C(=O)N[C@@H](Cc2c[nH]c3ccc(F)cc23)C(=O)N[C@H](C(=O)N[C@H](C(=O)N[C@H](CCC(=O)O)C(N)=O)C(C)(C)O)[C@@H](C)c2ccccc2)NC(=O)[C@H](Cc2ccc(O)cc2)NC(=O)[C@H](C(C)C)NC(=O)[C@H](CC(=O)O)NC(=O)[C@H](CC2CCN(C(=O)CCOCCOCCOCCOCCNC(=O)CN3CCN(CC(=O)O)CCN(CC(=O)O)CCN(CC(=O)O)CC3)CC2)NC(=O)[C@H](CC2CCN(CC(=O)O)CC2)NC(=O)CNC(=O)[C@H](C(C)(C)C)NC1=O` [compound 496, Ac-hLeu-Y-C-Tbg-G-Pip(CH2COOH)Ala-Pip(PEG4-DOTA)Ala-D-V-Y-C-5FW-[(2S, 3S)beta-Me-Phe]-hydroxyVal-dGlu-CONH2] (Ac-[hLeu]YC[Tle]G[Ala(1-CH2CO2H-4-piperidyl)][Ala(piperidin-4-yl)]([PEG4-DOTA])DVYC[Trp(5-F)][X1][Val(3-OH)][dE]-NH2; disulfide 3-11) came in with a Kd of 526 nM. Further, the “% cell associated fraction” value in data set [2] is listed as “B (25<%≤50)”. Also, the “% net internalization” value in data set [3] is on record as “A (%≤25)”. The molecule also returned a Kd in data set [4] of under 1 nM. For the same molecule, in data set [5], the “kidney uptake (% IA/g)” value is “C (0 < % IA/g ≤ 10 in kidney)” and the “tumor uptake (% IA/g)” value is “A (0 < % IA/g ≤ 5 in tumor)”.
On to `CC(=O)N[C@@H](CCC(C)C)C(=O)N[C@@H](Cc1ccc(O)cc1)C(=O)N[C@H]1CSSC[C@@H](C(=O)N[C@@H](Cc2c[nH]c3ccc(F)cc23)C(=O)N[C@@H](Cc2ccccc2)C(=O)N[C@H](C(=O)N[C@H](CO)C(N)=O)C(C)(C)O)NC(=O)[C@H](Cc2ccc(O)cc2)NC(=O)[C@H](C(C)C)NC(=O)[C@H](CC(=O)O)NC(=O)[C@H](CC2CCN(C(=O)CCOCCOCCOCCOCCNC(=O)CN3CCN(CC(=O)O)CCN(CC(=O)O)CCN(CC(=O)O)CC3)CC2)NC(=O)[C@H](CCCCN)NC(=O)CNC(=O)[C@H](C(C)(C)C)NC1=O` [compound 408, Ac-hLeu-Y-C-Tbg-G-K-Pip(PEG4-DOTA)Ala-D-V-Y-C-5FW-F-hydroxyVal-dSer-CONH2] (Ac-[hLeu]YC[Tle]GK[Ala(piperidin-4-yl)]([PEG4-DOTA])DVYC[Trp(5-F)]F[Val(3-OH)][dS]-NH2; disulfide 3-11), for which the Kd is 920 nM in data set [1] (setting [7]) and under 1 nM in data set [4] (setting [8]). Further, the “% cell associated fraction” value in data set [2] is “C (%>50)”. Besides, the “% net internalization” value in data set [3] is recorded as “A (%≤25)”.
In the case of `CC(=O)N[C@@H](CCC(C)C)C(=O)N[C@@H](Cc1ccc(O)cc1)C(=O)N[C@H]1CSSC[C@@H](C(=O)N[C@@H](Cc2c[nH]c3ccc(F)cc23)C(=O)N[C@H](C(=O)N[C@H](C(=O)N[C@H](C)C(=O)O)C(C)(C)O)[C@@H](C)c2ccccc2)NC(=O)[C@H](Cc2ccc(O)cc2)NC(=O)[C@H](C(C)C)NC(=O)[C@H](CC(=O)O)NC(=O)[C@H](CC2CCN(C(=O)CCOCCOCCOCCOCCNC(=O)CN3CCN(CC(=O)O)CCN(CC(=O)O)CCN(CC(=O)O)CC3)CC2)NC(=O)[C@H](CC2CCN(CC(=O)O)CC2)NC(=O)CNC(=O)[C@H](C(C)(C)C)NC1=O` [compound 526, Ac-hLeu-Y-C-Tbg-G-Pip(CH2COOH)Ala-Pip(PEG4-DOTA)Ala-D-V-Y-C-5FW-[(2S, 3S)beta-Me-Phe]-hydroxyVal-dAla-COOH] (Ac-[hLeu]YC[Tle]G[Ala(1-CH2CO2H-4-piperidyl)][Ala(piperidin-4-yl)]([PEG4-DOTA])DVYC[Trp(5-F)][X1][Val(3-OH)][dA]-OH; disulfide 3-11), the Kd in data set [1] was 380 nM; in data set [4], under 1 nM. Also, in data set [5], the “kidney uptake (% IA/g)” value was “D (% IA/g > 10 in kidney)”. Further, the “tumor uptake (% IA/g)” value in data set [5] is given as “A (0 < % IA/g ≤ 5 in tumor)”.
On to `CC(=O)N[C@@H](CCC(C)C)C(=O)N[C@@H](Cc1ccc(O)cc1)C(=O)N[C@H]1CSSC[C@@H](C(=O)N[C@@H](Cc2c[nH]c3ccc(F)cc23)C(=O)N[C@@H](Cc2ccccc2)C(=O)N[C@H](C(=O)N[C@H](CCC(=O)O)C(N)=O)C(C)(C)O)NC(=O)[C@H](Cc2ccc(O)cc2)NC(=O)[C@H](C(C)C)NC(=O)[C@H](CC(=O)O)NC(=O)[C@H](CC2CCN(C(=O)CCOCCOCCOCCOCCNC(=O)CN3CCN(CC(=O)O)CCN(CC(=O)O)CCN(CC(=O)O)CC3)CC2)NC(=O)[C@H](CCCCN)NC(=O)CNC(=O)[C@H](C(C)(C)C)NC1=O` [compound 410, Ac-hLeu-Y-C-Tbg-G-K-Pip(PEG4-DOTA)Ala-D-V-Y-C-5FW-F-hydroxyVal-dGlu-CONH2] (Ac-[hLeu]YC[Tle]GK[Ala(piperidin-4-yl)]([PEG4-DOTA])DVYC[Trp(5-F)]F[Val(3-OH)][dE]-NH2; disulfide 3-11), for which the Kd in data set [1] (setting [7]) is 820 nM; in data set [4] (setting [8]) it was under 1 nM. Moreover, the “% cell associated fraction” value in data set [2] is recorded as “B (25<%≤50)”. Further, the “% net internalization” value in data set [3] is “A (%≤25)”.
As for {DOTA-PEG8′}-[Nle]YCVGKYDVYCWF-NH2 (disulfide 3-11) [Cpd 5], the KD in data set [6] lay within 10 to 100 nM.

One may read the KD as a measure of binding affinity in units of concentration. The low end stands for tighter binding, the high end for weaker binding.
